The text below walks through data of patent US8680012B2, “4-phenyl-pyrane-3,5-diones,4-phenyl-thiopyrane-3,6-diones and cyclohexanetriones as novel herbicides” (Syngenta Crop Protection LLC, priority 2006, dated 2014).

Holding throughout (type): in vivo
For assay [1], the system named is Setaria faberi (SETFA). Briefly: Example B pre-emergence herbicidal activity, glasshouse pot test. To be noted: 312 h, rate 250 g/ha, evaluated after 13 days, read-out: Pre-emergence activity SETFA (100=total damage to plant; 0=no damage to plant). An outline of the steps:
(§1)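 Damage rated 13 days after treatment on a 0 (no damage) to 100 (total damage) scale. Spray of acetone/water (50:50) with 0.5% Tween 20 went onto soil-sown pots at day 1 (pre-emergence) or day 8 (post-emergence); glasshouse kept at 24/16 °C, 14 h light, 65% humidity.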

The test system of assay [2] is Amaranthus retroflexus (AMARE). Described as above. To be noted: 312 h, rate 250 g/ha, evaluated after 13 days, read-out: Pre-emergence activity AMARE (100=total damage to plant; 0=no damage to plant). Put shortly: as §1
Assay [3] relates to Alopecurus myosuroides (ALOMY). Described as above. Particulars: 312 h, rate 250 g/ha, evaluated after 13 days, read-out: Pre-emergence activity ALOMY (100=total damage to plant; 0=no damage to plant). An outline of the steps: as §1
For assay [4], the system named is Echinochloa crus-galli (ECHCG). The assay is described as above. To be noted: 312 h, rate 250 g/ha, evaluated after 13 days, read-out: Pre-emergence activity ECHCG (100=total damage to plant; 0=no damage to plant). Put shortly: as §1
Assay [5] relates to Avena fatua (AVEFA). The description is as above. To be noted: 312 h, rate 250 g/ha, evaluated after 13 days, read-out: Pre-emergence activity AVEFA (100=total damage to plant; 0=no damage to plant). Put shortly: as §1
For assay [6], the system named is Setaria faberi (SETFA). Briefly: Example B post-emergence herbicidal activity, glasshouse pot test. To be noted: 312 h, rate 250 g/ha, evaluated after 13 days, read-out: Post-emergence activity SETFA (100=total damage to plant; 0=no damage to plant). An outline of the steps:
as §1

The subject of assay [7] is Amaranthus retroflexus (AMARE). The description is as above. Particulars: 312 h, rate 250 g/ha, evaluated after 13 days, read-out: Post-emergence activity AMARE (100=total damage to plant; 0=no damage to plant). An outline of the steps:
as §1

For assay [8], the system named is Alopecurus myosuroides (ALOMY). Described as above. Particulars: 312 h, rate 250 g/ha, evaluated after 13 days, read-out: Post-emergence activity ALOMY (100=total damage to plant; 0=no damage to plant). An outline of the steps: as §1
In assay [9] the test system is Echinochloa crus-galli (ECHCG). Described as above. To be noted: 312 h, rate 250 g/ha, evaluated after 13 days, read-out: Post-emergence activity ECHCG (100=total damage to plant; 0=no damage to plant). An outline of the steps: as §1
Assay [10] has as its system Avena fatua (AVEFA). Described as above. To be noted: 312 h, rate 250 g/ha, evaluated after 13 days, read-out: Post-emergence activity AVEFA (100=total damage to plant; 0=no damage to plant). Put shortly: as §1

For `CCc1ccc(-c2ccc(Cl)c(F)c2)cc1C1=C(O)[C@@]2(C)CC[C@H](O2)C1=O` (single isomer, unassigned) [Compound A-125], the pest or weed control at 250 g/ha in the assay on Setaria faberi (SETFA) [1] was 100%; in assay [2], 0%; in assay [3], 70%; in assay [4], 90%; in the assay on Avena fatua (AVEFA) [5], 80%; in the assay with Setaria faberi (SETFA) [6] it was 100%. The pest or weed control at 250 g/ha in assay [7] was found to be 0%; in [8], 100%; in [9], 100%; with Avena fatua (AVEFA) [10], 90%.
For `Cc1ccc(-c2ccc(Cl)cc2Cl)cc1C1=C(O)C(C)(C)S(=O)(=O)C(C)(C)C1=O` [Compound C-8], the pest or weed control at 250 g/ha in the assay on Setaria faberi (SETFA) [1] turned out to be 0%; in assay [2], 0%; in assay [3] it was 0%; in assay [4], 0%; with Avena fatua (AVEFA) [5], 0%; with Setaria faberi (SETFA) [6] it was 40%. For the same compound, the pest or weed control at 250 g/ha stood at 0% in assay [7], 20% in [8], 60% in [9] and 0% in the assay on Avena fatua (AVEFA) [10].
In the case of `CCc1ccc(-c2ccc(Cl)nc2Cl)cc1C1=C(O)C(C)(C)OC(C)(C)C1=O` [Compound A-75], the pest or weed control at 250 g/ha in the assay with Setaria faberi (SETFA) [1] stood at 90%; in [2], 0%; in assay [3], 30%; in assay [4], 90%; in the assay with Avena fatua (AVEFA) [5], 30%; in the assay with Setaria faberi (SETFA) [6], 100%. The pest or weed control at 250 g/ha in assay [7] was determined as 0%; in assay [8] it was 90%; in assay [9] it was 100%; with Avena fatua (AVEFA) [10], 90%.
`CCc1ccc(-c2ccc(Cl)c(C(F)(F)F)c2)cc1C1=C(O)C(C)(C)OC(C)(C)C1=O` [Compound A-67]: the pest or weed control at 250 g/ha amounted to 90% in the assay with Setaria faberi (SETFA) [1]; 0% in assay [2]; 40% in assay [3]; 60% in assay [4]; 0% with Avena fatua (AVEFA) [5]; 30% in the assay with Setaria faberi (SETFA) [6]. Besides, the pest or weed control at 250 g/ha in assay [7] was determined as 100%; in assay [8] it was 80%; in assay [9], 100%; in the assay on Avena fatua (AVEFA) [10], 80%.
`CCc1ccc(-c2ccc(Cl)cc2OC)cc1C1=C(O)C(C)(C)OC(C)(C)C1=O` [Compound A-65]: the pest or weed control at 250 g/ha in the assay on Setaria faberi (SETFA) [1] stood at 0%; in assay [2], 0%; in [3], 0%; in [4] it was 90%; in the assay on Avena fatua (AVEFA) [5], 0%; with Setaria faberi (SETFA) [6], 70%. For the same compound, the pest or weed control at 250 g/ha was 10% in [7], 20% in assay [8], 90% in assay [9] and 0% with Avena fatua (AVEFA) [10].
With `CCc1ccc(-c2ccc(Cl)cc2)cc1C1=C(O)[C@]2(C)O[C@@H](CC2COC)C1=O` (stereo partly shown) [Compound A-122], the pest or weed control at 250 g/ha in the assay with Setaria faberi (SETFA) [1] came to 100%; in [2], 0%; in assay [3] it was 40%; in [4] it was 90%; in the assay on Avena fatua (AVEFA) [5], 100%; with Setaria faberi (SETFA) [6] it was 100%. Besides, the pest or weed control at 250 g/ha in assay [7] was 40%; in assay [8] it was 80%; in [9], 100%; in the assay with Avena fatua (AVEFA) [10], 50%.
`CCc1ccc(-c2ccc(Cl)c(F)c2)cc1C1=C(O)C(C)(C)[S+]([O-])C(C)(C)C1=O` (stereo not shown) [Compound C-12]: the pest or weed control at 250 g/ha turned out to be 90% in the assay with Setaria faberi (SETFA) [1]; 0% in assay [2]; 0% in [3]; 20% in assay [4]; 90% with Avena fatua (AVEFA) [5]; 90% in the assay on Setaria faberi (SETFA) [6]. The pest or weed control at 250 g/ha in assay [7] came to 0%; in [8] it was 80%; in [9] it was 90%; with Avena fatua (AVEFA) [10] it was 90%.
For `COc1ccc(-c2ccc(Cl)cc2)cc1C1=C(O)C(C)(C)OC(C)(C)C1=O` [Compound A-90], the pest or weed control at 250 g/ha is 0% in the assay with Setaria faberi (SETFA) [1]; 0% in assay [2]; 0% in assay [3]; 0% in assay [4]; 0% in the assay with Avena fatua (AVEFA) [5]; 90% with Setaria faberi (SETFA) [6]. Further, the pest or weed control at 250 g/ha in [7] was found to be 0%; in assay [8], 40%; in [9], 90%; in the assay with Avena fatua (AVEFA) [10], 20%.
Consider `CCc1ccc(-c2ccc(Cl)c(Cl)c2)cc1C1=C(O)[C@@]2(C)CC[C@H](O2)C1=O` (single isomer, unassigned) [Compound A-123], for which the pest or weed control at 250 g/ha in the assay on Setaria faberi (SETFA) [1] was found to be 100%; in assay [2] it was 0%; in assay [3], 50%; in [4], 70%; in the assay with Avena fatua (AVEFA) [5], 80%; with Setaria faberi (SETFA) [6], 100%. In addition, the pest or weed control at 250 g/ha stood at 0% in [7], 90% in assay [8], 100% in [9] and 70% in the assay on Avena fatua (AVEFA) [10].
`Cc1cc(C)c(-c2ccc(Cl)cc2F)c(C)c1C1=C(O)C(C)(C)OC(C)(C)C1=O` [Compound A-102]: the pest or weed control at 250 g/ha was found to be 90% in the assay with Setaria faberi (SETFA) [1]; 0% in assay [2]; 30% in [3]; 90% in assay [4]; 0% in the assay on Avena fatua (AVEFA) [5]; 30% with Setaria faberi (SETFA) [6]. The pest or weed control at 250 g/ha in [7] stood at 0%; in assay [8], 20%; in assay [9], 70%; with Avena fatua (AVEFA) [10], 0%.
Consider `CCc1ccc(-c2cc(Cl)c(Cl)c(Cl)c2)cc1C1=C(O)C(C)(C)OC(C)(C)C1=O` [Compound A-139], for which the pest or weed control at 250 g/ha in the assay on Setaria faberi (SETFA) [1] is 70%; in [2] it was 0%; in [3] it was 0%; in assay [4] it was 30%; in the assay on Avena fatua (AVEFA) [5] it was 0%; in the assay with Setaria faberi (SETFA) [6], 80%. Moreover, the pest or weed control at 250 g/ha in assay [7] worked out at 50%; in assay [8], 30%; in assay [9], 100%; with Avena fatua (AVEFA) [10], 50%.
For the compound `CCc1ccc(-c2ccc(Cl)c(F)c2F)cc1C1=C(O)C(C)(C)OC(C)(C)C1=O` [Compound A-153], the pest or weed control at 250 g/ha turned out to be 100% with Setaria faberi (SETFA) [1]; 0% in [2]; 60% in assay [3]; 100% in assay [4]; 50% in the assay with Avena fatua (AVEFA) [5]; 100% in the assay with Setaria faberi (SETFA) [6]. The pest or weed control at 250 g/ha was 30% in assay [7], 100% in [8], 100% in assay [9] and 100% with Avena fatua (AVEFA) [10].
Turning to `CCc1ccc(-c2ccc(Cl)nc2C)cc1C1=C(O)C(C)(C)OC(C)(C)C1=O` [Compound A-77], the pest or weed control at 250 g/ha in the assay on Setaria faberi (SETFA) [1] came to 20%; in [2], 0%; in assay [3], 10%; in [4], 0%; with Avena fatua (AVEFA) [5] it was 0%; in the assay on Setaria faberi (SETFA) [6], 90%. For the same compound, the pest or weed control at 250 g/ha was found to be 0% in assay [7], 70% in assay [8], 100% in [9] and 60% with Avena fatua (AVEFA) [10].
